Like-named read-outs stand apart in the source and are kept apart here. Ends that are not written are not given here. Peptide text beside a SMILES is read from it.
Experiments:
E. coli (KCTC 1682) = type: cell-based, Escherichia coli
Source text: (§1) E. coli (KCTC 1682) was obtained from the Korean Collection for Type Cultures (KCTC, Jeongeup, Republic of Korea), and Acinetobacter baumannii (KCCM 40203) and Pseudomonas aeruginosa (KCCM 11328) from the Korea Culture Center of Microorganisms (KCCM, Seoul, Republic of Korea). Klebsiella pneumoniae (NCCP 16054), colistin-resistant E. coli NMA 1557 (ColREC 1557), NMS 12 (ColREC 12), and colistin-resistant A. baumannii NMS 1915 (ColRAB 1915), as well as colistin-resistant K. pneumoniae NMS 139 (ColRKP 139), were obtained from the National Institute of Health Multidrug Resistant Bacteria Specialized Pathogen Resources Bank (Osong, Republic of Korea).
(§2) The antibacterial abilities of the peptides (T. ni cecropin, cecropin A, polymyxin B, colistin, and melittin) were determined using the broth dilution method as previously reported. The peptides dissolved at 10 mg/mL in deionized water were serially diluted from 64 μM to 0.5 μM in 96-well plates using Mueller–Hinton (MH) broth, and bacteria cultured to exponential growth were added at 2 × 10^5 cells/mL. The group of bacteria that grew untreated in the broth was set as the positive control, and the uninoculated broth as the negative control. Dissolved peptides are colorless and equal to the OD value of the medium only. After 16 h incubation at 37 °C, the absorbance at 600 nm was measured using a SpectraMAX microplate reader (Molecular Devices, San Jose, CA, USA).

[1] = test system: colistin-resistant E. coli NMA 1557 (ColREC 1557); type: cell-based, Escherichia coli; details: MH broth, 2 × 10^5 cells/mL, 16 h, 37 °C, OD600, >95% killing
Source text: as §1, §2

[2] = test system: colistin-resistant E. coli NMS 12 (ColREC 12); type: cell-based, Escherichia coli; details: MH broth, 2 × 10^5 cells/mL, 16 h, 37 °C, OD600, >95% killing
Source text: as §1, §2

[3] = test system: Acinetobacter baumannii (KCCM 40203); type: cell-based
Source text: as §1, §2

[4] = test system: Klebsiella pneumoniae (NCCP 16054); type: cell-based
Source text: as §1, §2

[5] = test system: Pseudomonas aeruginosa (KCCM 11328); type: cell-based
Source text: as §1, §2

[6] = test system: colistin-resistant A. baumannii NMS 1915 (ColRAB 1915); details: MH broth, 2 × 10^5 cells/mL, 16 h, 37 °C, OD600, >95% killing
Source text: as §1
as §2, with “The” for “The antibacterial abilities of the peptides (T. ni cecropin, cecropin A, polymyxin B, colistin, and melittin) were determined using the broth dilution method as previously reported. The”

[7] = test system: colistin-resistant K. pneumoniae NMS 139 (ColRKP 139); type: cell-based, Klebsiella pneumoniae; details: MH broth, 2 × 10^5 cells/mL, 16 h, 37 °C, OD600, >95% killing
Source text: as §1, §2

all bacterial strains = experiment: Average MIC over all strains and relative selective index; type: cell-based; details: 8 strains; MIC above 64 μM taken as 128 μM
Protocol: as §2

L-929 cells = experiment: Cytotoxicity, WST-8; type: cell-based, mouse; details: 24 h; for viability / survival rate: up to 100 μM peptide
Protocol: (§3) Murine macrophage RAW 264.7 cells and mouse fibroblast L-929 cells were used for research and were purchased from the Korea Cell Line Bank (Seoul, Republic of Korea). Both cells were cultured in Dulbecco’s Modified Eagle’s Medium (DMEM; Welgene, Gyeongsan, Republic of Korea) supplemented with 10% fetal bovine serum and 1% antibiotics (penicillin/streptomycin) at 37 °C in the presence of 5% CO2. To measure the cytotoxicities of peptides against RAW 264.7 cells and L-929 cells, both cell lines were seeded at a density of 1 × 10^5 cells/well in a 96-well plate, to which each concentration of peptide solution (from 1.6 μM to 100 μM) was added, followed by incubation for 22 h. Subsequently, WST-8 (Biomax Co., Ltd., Guri, Republic of Korea) was added at 10% volume of the final solution, and the mixture was incubated for an additional 2 h. Absorbance was measured at 450 nm. Percentages were calculated based on untreated cells.

RAW 264.7 cells = experiment: Cytotoxicity, WST-8; type: cell-based, mouse; details: 100 μM peptide, 24 h
Protocol: as §3

ColREC 12 = experiment: Biofilm inhibition assay, crystal violet; type: cell-based, Escherichia coli; details: ColREC 12, 2 μM peptide, 16 h
Protocol: (§4) To quantify the biofilm inhibitory activity of each peptide, ColREC 1557 and ColREC 12 were cultured in Luria–Bertani (LB) broth overnight and then sub-cultured in MH broth. Different concentrations of peptide (from 1 μM to 64 μM) were prepared in 96-well plates using MH broth (containing 0.2% glucose) and incubated with bacteria (2 × 10^5 cells/mL) at 37 °C for 16 h. After incubation, the culture medium was removed and methanol was added as a fixative for 15 min. The completely dried plates were stained for 2 h by adding 100 μL of staining solution (0.1% (w/v) crystal violet in 0.25% (v/v) acetic acid). The residual staining solution was gently rinsed off three times using distilled water. Subsequently, 90% ethanol was used to dissolve the dye, and absorbance was measured at 600 nm. The untreated bacterial group was used as a control to compare biofilm production rates.

[8] = Limulus amebocyte lysate (LAL) assay, LPS neutralization; type: biochemical; details: LPS 2 ng/mL, 10 min, 37 °C
Protocol: To investigate the LPS-neutralizing activity, LAL assays were performed according to the protocol provided in the LAL assay kit (ToxinSensor™ Chromogenic LAL Endotoxin Assay Kit; GenScript, Piscataway, NJ, USA). Briefly, peptides diluted from 50 μM to 1.6 μM in LAL reagent water were incubated with LPS (2 ng/mL) for 10 min at 37 °C. LAL enzyme was then added and incubated under the same conditions. Substrate was added to react, after which three kinds of stop solutions were added in order. Absorbance (545 nm) was measured and quantified using an endotoxin standard graph.

[9] = test system: sheep red blood cells (sRBCs); experiment: Hemolysis; type: cell-based; details: 1 h, 37 °C
Protocol: Sheep red blood cells (sRBCs; KisanBio, Seoul, Republic of Korea) were added to three volumes of phosphate-buffered saline (PBS; 35 mM phosphate buffer containing 150 mM NaCl, pH 7.4) and centrifuged five times at 4 °C, 1000× g for 5 min, followed by a final suspension in PBS at 4% (w/v). Peptides serially diluted from 100 μM to 3.1 μM in PBS at 100 μL in a 96-well plate were prepared, and an equal volume of blood solution was added. After incubation at 37 °C for 1 h, the plates were centrifuged for 5 min at 4 °C, 1000× g. The absorbance of the supernatant was measured at 405 nm. The 100% hemolysis control was 0.1% Triton-X 100 added to the blood solution; the negative control was blood solution added to PBS.

ColREC 1557 = type: cell-based, Escherichia coli; details: 16 h, crystal violet
Protocol: as §4

TLR4/MD-2 complex = biological target: T1, TLR4/MD-2 complex (Homo sapiens, UniProt O00206+Q9Y6Y9); experiment: Surface plasmon resonance (SPR); type: binding; details: Biacore T200, CM5 chip, PBS with 0.05% Tween 20, 25 °C, read-out: equilibrium constant (KD) for TLR4/MD2
T1 construct: purchased R&D Systems
Protocol: Binding affinity measurements of the peptide to TLR4/myeloid differentiation factor 2 (MD-2) protein (R&D Systems) were performed on a Biacore T200 instrument (GE Healthcare, Danderyd, Sweden). The receptor was covalently bound to the carboxymethylated sensor chip surface using standard NHS/EDC coupling procedures. The sensor chip (Sensor Chip CM5; Cytiva, MA, USA) was loaded with 30 μg/mL of protein in sodium acetate buffer (pH 4.0) to a resonance value of 2500. Measurements were performed at a flow rate of 30 μL/min with increasing concentrations of peptide dissolved in PBS containing 0.05% Tween 20 at 25 °C. Analysis was performed using Biacore T200 Evaluation Software 3.0 (GE Healthcare, Chicago, IL, USA).

[10] = E. coli, MH broth, 2 × 10^5 cells/mL, 16 h, 37 °C, OD600, >95% killing
[11] = A. baumannii, MH broth, 2 × 10^5 cells/mL, 16 h, 37 °C, OD600, >95% killing
[12] = K. pneumoniae, MH broth, 2 × 10^5 cells/mL, 16 h, 37 °C, OD600, >95% killing
[13] = P. aeruginosa, MH broth, 2 × 10^5 cells/mL, 16 h, 37 °C, OD600, >95% killing

T1 sequence (O00206 24-631 limits assumed): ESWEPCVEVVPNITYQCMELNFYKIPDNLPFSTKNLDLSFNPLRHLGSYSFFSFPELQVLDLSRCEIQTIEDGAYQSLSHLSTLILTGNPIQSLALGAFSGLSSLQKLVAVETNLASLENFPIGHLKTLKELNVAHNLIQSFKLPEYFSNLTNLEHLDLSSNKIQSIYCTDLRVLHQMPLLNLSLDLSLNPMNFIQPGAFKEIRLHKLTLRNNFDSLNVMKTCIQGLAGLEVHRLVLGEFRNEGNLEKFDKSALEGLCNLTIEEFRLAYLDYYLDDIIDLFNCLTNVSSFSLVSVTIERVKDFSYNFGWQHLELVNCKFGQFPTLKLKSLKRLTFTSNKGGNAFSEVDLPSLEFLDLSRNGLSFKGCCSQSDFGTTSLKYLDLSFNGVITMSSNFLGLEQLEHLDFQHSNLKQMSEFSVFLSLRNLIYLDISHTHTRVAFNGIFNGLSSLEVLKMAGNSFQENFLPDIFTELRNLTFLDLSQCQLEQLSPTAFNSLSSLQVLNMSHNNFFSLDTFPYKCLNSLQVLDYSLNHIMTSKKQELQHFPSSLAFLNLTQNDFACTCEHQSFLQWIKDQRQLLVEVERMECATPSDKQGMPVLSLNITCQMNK
T1 sequence (Q9Y6Y9 17-160 limits assumed): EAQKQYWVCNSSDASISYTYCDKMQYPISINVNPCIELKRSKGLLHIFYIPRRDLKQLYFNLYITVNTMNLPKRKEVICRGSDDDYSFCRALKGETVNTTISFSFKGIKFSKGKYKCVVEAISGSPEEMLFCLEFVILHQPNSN

Molecule | Minimal Inhibitory Concentration [1] | Minimal Inhibitory Concentration [2] | Minimal Inhibitory Concentration [6] | Minimal Inhibitory Concentration [7] | GM (geometric mean, average MIC value of all bacterial strains) (all bacterial strains) | viability / survival rate (L-929 cells) | cell viability (RAW 264.7 cells) | Minimal Inhibitory Concentration (E. coli (KCTC 1682); [10]) | Minimal Inhibitory Concentration [3, 11] | Minimal Inhibitory Concentration [4, 12] | Minimal Inhibitory Concentration [5, 13] | inhibition of biofilm formation (ColREC 12) | other results
CC[C@H](C)CCCCC(=O)N[C@@H](CCN)C(=O)N[C@H](C(=O)N[C@@H](CCN)C(=O)N[C@H]1CCNC(=O)[C@H]([C@@H](C)O)NC(=O)[C@H](CCN)NC(=O)[C@H](CCN)NC(=O)[C@H](CC(C)C)NC(=O)[C@@H](Cc2ccccc2)NC(=O)[C@H](CCN)NC1=O)[C@@H](C)O [polymyxin B] (HELM PEPTIDE1{[CC[C@H](C)CCCCC(=O)[*:2]].[Dab].T.[Dab].[Dab].[Dab].[dF].L.[Dab].[Dab].T}$PEPTIDE1,PEPTIDE1,5:R3-11:R2$$$V2.0; N-terminus assumed; bridges inferred) | 8 µM | 4 µM | 64 µM | 64 µM | 17.88 µM | 96.0% | 31.3% |  |  |  |  |  | Minimal Inhibitory Concentration (E. coli (KCTC 1682); KCTC 1682, 16 h): 0.25 µM; Minimal Inhibitory Concentration ([3]; KCCM 40203, 16 h): 0.5 µM; Minimal Inhibitory Concentration ([4]; NCCP 16054, 16 h): 0.25 µM; Minimal Inhibitory Concentration ([5]; KCCM 11328, 16 h): 2 µM
KWKLFKKIEKVGQNIRDGIIKAGPAVAVVGQATQIAK-NH2 [cecropin A] | 1 µM | 1 µM | 1 µM | 2 µM | 2.25 µM |  |  | 2 µM | 2 µM | 1 µM | 8 µM | 80.8% | 
LL-37 |  |  |  |  |  |  |  |  |  |  |  |  | peptide concentration nearly neutralizing 10 enzyme units (EU) of LPS [8]: 12.5 µM
CC[C@H](C)[C@H](NC(=O)CN)C(=O)NCC(=O)N[C@@H](C)C(=O)N[C@H](C(=O)N[C@@H](CC(C)C)C(=O)N[C@@H](CCCCN)C(=O)N[C@H](C(=O)N[C@@H](CC(C)C)C(=O)N[C@H](C(=O)N[C@H](C(=O)NCC(=O)N[C@@H](CC(C)C)C(=O)N1CCC[C@H]1C(=O)N[C@@H](C)C(=O)N[C@@H](CC(C)C)C(=O)N[C@H](C(=O)N[C@@H](CO)C(=O)N[C@@H](Cc1c[nH]c2ccccc12)C(=O)N[C@H](C(=O)N[C@@H](CCCCN)C(=O)N[C@@H](CCCNC(=N)N)C(=O)N[C@@H](CCCCN)C(=O)N[C@@H](CCCNC(=N)N)C(=O)N[C@@H](CCC(N)=O)C(=O)N[C@@H](CCC(N)=O)C(N)=O)[C@@H](C)CC)[C@@H](C)CC)[C@@H](C)O)[C@@H](C)O)C(C)C)C(C)C [melittin] | 2 µM | 2 µM | 2 µM | 32 µM |  |  |  |  | 4 µM | 32 µM |  |  | hemolytic activity ([9]; 3.1 μM peptide): 8.2%; hemolytic activity ([9]; 12.5 μM peptide): 84.3%; survival rate (L-929 cells; 1.6 μM peptide): below 5%
RWKFFKKIEKVGQNIRDGIIKAGPAVAVVGQAASITGK-NH2 [T. ni cecropin] | 1 µM | 1 µM | 1 µM | 2 µM | 1.63 µM | 95% | 93.6% | 2 µM | 1 µM | 1 µM | 4 µM | 82.5% | hemolytic activity ([9]; 100 μM peptide): no hemolytic activity; inhibition of biofilm formation (ColREC 1557; ColREC 1557, 2 μM peptide): 75.3%; inhibition of biofilm formation (ColREC 1557; ColREC 1557, 4 μM peptide): over 90%; Kd (TLR4/MD-2 complex): 558 nM

— publication PMC10304470, “Characterization of the Antimicrobial Activities of Trichoplusia ni Cecropin A as a High-Potency Therapeutic against Colistin-Resistant Escherichia coli” (Pharmaceutics, 2023)
